Laboratory results from article PMC11029812, “Liver-targeted polymeric prodrugs delivered subcutaneously improve tafenoquine therapeutic window for malaria radical cure” (Science Advances, 2024).
Where two headings read alike, the source gives them in different places.

How the values were obtained:
[1] = Tissue pharmacokinetics of released TQ and its metabolites in liver, plasma and urine (LC-MS/MS); assay type: in vivo, BALB/c mice
[2] = Polymer biodistribution (IVIS imaging) and liver hepatocyte localization (histology); assay type: in vivo; conditions: mice
Protocol: Mice were dosed SC with rhodamine-labeled pSVCTQ at the dose of equivalent 25 mg/kg TQ, which were then euthanized at 8 hours after injection. Selected organs, including liver, kidneys, lungs, spleen, heart, and brain, were harvested and washed with PBS before imaging studies (IVIS) using fluorescent mode at (excitation/emission: 530/585 nm), Caliper Xenogen IVIS (PerkinElmer, Hopkinton, MA). The radiant efficiency emitted from the organs in each mouse was subsequently quantified using Xenogen Living Image software. Mice treated with PBS served as controls (fig. S12). Three mice were included in each group.
Rhodamine-labeled pSVCTQ was formulated in PBS and SC administered in mice at a dose of 25 mg/kg TQ equivalent. Mice receiving PBS served as controls. The liver was harvested at 8 hours after injection and immediately fixed in 10% neutral buffered formalin at 4°C for 4 hours. After washing three times in cold PBS, the liver tissue was sunk in 15% sucrose solution for 24 hours and then in 30% sucrose solution for 24 hours at 4°C. The sucrose solution was prepared in DPBS (1×, with Mg^2+ and Ca^2+). The liver tissue was then blotted with paper tissue and embedded in an optimal cutting temperature compound. The sample was frozen in prechilled isopentane in liquid nitrogen and stored at −80°C. The 5-μm-thick sections were prepared using CryoStat at −20°C. Alexa Fluor 488 phalloidin was diluted 1:50 in PBS and used to counterstain the sections for 1 hour at room temperature (RT) to visualize cell outlines. The cell nuclei were counterstained with DAPI (blue) for 5 min at RT. Sections were imaged using an epi-fluorescent microscope (Nikon Eclipse 90i and Hamamatsu C10600 Camera at 20× magnification) using GFP-B HYQ (excitation/emission: 450/550 nm) Texas red HYQ (excitation/emission: 535/580 nm) and ultraviolet illumination (excitation/emission: 350/470 nm).

[3] = Hemotoxicity in humanized G6PD deficiency mouse model; assay type: in vivo, human RBCs engrafted in NOD/SCID mice; conditions: female, NOD/SCID (NOD.CB17-Prkdcscid/J), mouse, in vivo; curve fit of Fig. 4B; single dose; pSVCTQ SC, TQ oral; day 7; read-out: Dose resulting in 50% hemolysis (TD50)
Protocol: (§1) Following procedures as previously published ([46]), hemotoxicity studies using huRBC engraftments were conducted in mice.
(§2) Female (8 to 9 weeks) NOD.CB17-Prkdcscid/J [nonobese diabetic severe combined immunodeficient (NOD/SCID)] mice were purchased from The Jackson Laboratory (Bar Harbor, ME). The animals were housed in a cage maintained in a specific pathogen–free animal facility and were acclimated for 1 week in the facility before initiation of experimental procedures. Sterile food and water were provided ad libitum throughout the study as previously described ([64]). All animal studies were performed under IACUC-approved protocols and adhere to the principles stated in the Guide for the Care and Use of Laboratory Animals ([100]).
(§3) Polymer solutions for SC administration were prepared in DPBS at the final dosing concentrations. All drug concentrations were calculated per the free base molecular weights of TQ. The TQ parent compound was administered intragastrically via an intragastric feeder tube. Polymers and vehicle were administered SC in the right flank. TQ, pSVCTQ, and vehicle were given as a single dose on day 0. In this model, the TQ dose studied was 10 mg/kg; pSVCTQ was tested at doses of 2.5, 5.0, or 10 mg/kg TQ equivalent.
(§4) The percentage of huRBCs at the end of this period was analyzed by flow cytometry to evaluate glycophorin A (huRBCs) and Ter119 (mouse RBCs) circulating in peripheral blood. […] The G6PD-deficient huRBC NOD/SCID mice were dosed with pSVCTQ or parent drug prepared as described above, with three to four mice per group. On days 4 and 7 following dosing, huRBC levels were assessed again by flow cytometry (glycophorin^+Ter119^−), along with the percentage of murine reticulocytes (CD71^+Ter119) as an additional marker of hemolytic toxicity. Mice were euthanized on day 7 following initiation of treatment.
(§5) Microsoft Excel and GraphPad Prism were used throughout the PK analysis to process the data, calculate pharmacokinetic parameters, and yield statistical information. A linear regression model was produced using the least squares fitting method with 1/x^2 scaling for the assay calibrators. […] For the G6PD deficiency model, data analysis was performed using GraphPad Prism (GraphPad Software). […] An F test comparing the two dose-response curves was also run. For all other work, a combination of Microsoft Excel and GraphPad Prism was used.

G6PD-deficient huRBCs = experiment: as above; assay type: in vivo, human RBCs engrafted in NOD/SCID mice; conditions: single dose day 0; pSVCTQ SC, TQ oral; A− G6PD-deficient donor
Protocol: as §1, §2, §3, §4, §5

[4] = set-up: method as in PMID 28749773; conditions: G6PD-deficient cohort, cited from earlier work
P. berghei = P. berghei luciferase and blood parasitemia model of causal prophylaxis; assay type: in vivo
Protocol: Efficacy studies in the P. berghei mouse model of causal prophylaxis were conducted at the Walter Reed Army Institute of Research, Experimental Therapeutics Branch as previously described ([46]).
Luciferase-expressing P. berghei ANKA sporozoites were obtained from laboratory-reared female Anopheles stephens mosquitoes as previously described ([46]). Sporozoites were recovered by the method of Li et al. ([62]) and quantitated using a hemocytometer. Sporozoites isolated from the same batch of mosquitoes were inoculated into mice on the same day to control biological variability in sporozoite preparations. Each animal was inoculated IV in the tail vein with approximately 10,000 sporozoites suspended in 0.1-ml volume on day 0.
Age-matched, 40 young adult (7-week-old) female C57BL/6 albino mice were purchased from Charles River Laboratories (Frederick, MD). On arrival, animals were acclimated for 7 days in quarantine. Mice were housed and maintained at a temperature range of 64° to 79°F, 34 to 68% relative humidity, and a 12-hour light/dark cycle. Food and water were provided ad libitum. Animals were fed a standard rodent maintenance diet. All animal use, care, and handling was conducted under an IACUC-approved animal use protocol in an Association for Assessment and Accreditation for Laboratory Animal Care International (AAALACi)–accredited facility with a Public Health Services Animal Welfare Assurance and in compliance with the Animal Welfare Act and other federal statutes and regulations relating to laboratory animals.
TQ was dissolved at a stock concentration of 1 mg/ml in 25% hydroxy-β-cyclodextrin acidified to pH 5 with acetic acid and diluted in DPBS for final dosing solutions. Polymers for parenteral administration were prepared in DPBS at the final dosing concentrations. All drug concentrations were calculated per the free base molecular weights of TQ. TQ parent compounds were administered intragastrically via an intragastric feeder tube. Vehicle groups (0.1 ml of DPBS) and polymer groups were administered SC in the right flank. Free TQ, vehicle, and polymers were given as a single dose on day −1. In this model, the pSVCTQ doses studied were 5.0, 7.5, or 10 mg/kg TQ equivalent.
Whole-body IVIS imaging of bioluminescence activity from luciferase-expressing P. berghei–infected mice was performed using a PerkinElmer IVIS Spectrum. Mice were evaluated at 24, 48, and 72 hours after sporozoite inoculation to determine liver- and blood-stage malaria infection. Mice received luciferin (150 mg/kg, Gold Biotechnology, St. Louis, MO) intraperitoneally in a maximal volume of 150 μl. Three minutes after luciferin administration, the mice were anesthetized with inhaled isoflurane and positioned ventral side up in the IVIS Spectrum on a 37°C platform. The mice continued to receive isoflurane through nose cone delivery. The camera exposure times used were 1 or 5 min for the 24-, 48-, and 72-hour time points with f-stop = 1, and the large binning setting was chosen. Quantitative analysis of bioluminescence emitted from whole bodies or […] (ROI) were determined by measuring the luminescence signal intensity in photons per second using the ROI settings of the Living Image 3.0 software. The ROI, expressed in total flux of photons, was set to measure the abdominal area at the location of the liver from whole-body imaging ([62]). The data were generally found to fit a normal distribution. Means and SDs of photon measurement were calculated.
On days 5 to 31 after infection, mice were analyzed for blood-stage infections by quantitation of malaria parasites in erythrocytes by flow cytometry. Blood (3 μl) from the mouse tail was collected directly into 0.3 ml of 1% heparinized isotonic buffer (PBS saline). After addition of 1 ml of 0.04% of glutaraldehyde for fixation, the samples were incubated at 4°C for 60 min. Cells were centrifuged at 450g for 5 min. […]

[5] = 8 hours after SC 25 mg/kg TQ equivalent
[6] = female, BALB/c, mouse, in vivo, po, 10 mg/kg

Molecule: p(GalNAc-MA-co-VCTQ-MA) [pVCTQ]
- Liver:plasma AUC ratio ([1]; 25 mg/kg, IV, mice): 120
- AUC, liver ([1]; TQ in liver, 25 mg/kg TQ equivalent, IV, mice, t = 0 to 336 hours): 2725 μg/g liver*hour
- Cmax, liver ([1]; TQ in liver, 25 mg/kg, IV, mice): 48 μg/g liver

Molecule: p(GalNAc-MA-co-SVCTQ-MA-co-RheMA) [rhodamine-labeled pSVCTQ]
- Fluorescence in lungs, heart, spleen, and brain (IVIS) [2, 5]: little fluorescence intensity
- Fluorescence in the kidneys (IVIS) [2, 5]: low level of fluorescence
- Liver accumulation (IVIS fluorescence) [2, 5]: accumulate in the liver with high selectivity
- Liver penetration / hepatocyte distribution (cross-sectional histology) ([2]; liver 8 hours after SC 25 mg/kg TQ equivalent): present in every hepatocyte

Molecule: p(GMA-co-SVATQMA) [tri-antennary GalNAc polymeric prodrug]
- Liver AUC drug exposure compared with the copolymer ([1]; SC 10 mg/kg dose, mice (fig. S15C)): equivalent to the copolymer

Molecule: p(GalNAc-co-MSEMA-co-SVCTQMA) [lower GalNAc polymeric prodrug design]
- PK properties compared with pSVCTQ ([1]; TQ in liver and plasma after SC 10 mg/kg dose, mice (fig. S15B)): preserved much of the PK properties

Molecule: COc1cc(C)c2c(Oc3cccc(C(F)(F)F)c3)c(OC)cc(NC(C)CCCN)c2n1 (stereo not shown) [TQ, tafenoquine]
- TD50 at 7 days [3]: 5 mg/kg
- Median effective dose (dose that results in 50% huRBC loss by day 7 relative to vehicle control) (G6PD-deficient huRBCs): 4.7 mg/kg
- Hemolytic toxicity (decreases in hemoglobin and hematocrit) ([4]; 100-mg dose): did not produce hemotoxicity
- Hemolytic toxicity (decreases in hemoglobin and hematocrit) ([4]; 300-mg dose): dose-limiting
- Mice survived (P. berghei; 10 mg/kg PO, single dose day −1, 31 days, n = 5): 2/5
- Blood parasitemia suppression (P. berghei; 10 mg/kg oral, single dose day −1): partial suppression of parasitemia
- IVIS signal during days 1 to 3 (P. berghei; 10 mg/kg single dose day −1, pSVCTQ SC, TQ oral): completely suppressed
- AUC [1, 6]: 22400 ng·h/mL
- AUC, liver [1, 6]: 1404 μg/g liver*hour
- Cmax [1, 6]: 380 ng/mL
- Cmax, liver [1, 6]: 17 μg/g liver
- Kp [1, 6]: 62.8
- Tmax [1, 6]: 8 h
